This note sets out measurements from patent publication US20130065868A1, “ANXIOYTIC MARCGRAVIACEAE COMPOSITIONS CONTAINING BETULINIC ACID, BETULINIC ACID DERIVATIVES, AND METHODS” (UNIVERSITY OF OTTAWA, priority 2002, published 2013).

Data set [1] is described as follows: Elevated plus maze, betulinic acid vs structurally related compounds (Example 11). The format is in vivo. The source says:
This example compares the anxiolytic activity of betulinic acid and some other structurally related compounds. Results are illustrated in FIG. 7.

In another data set the test system is Sprague-Dawley rats. Put plainly: Rat social interaction paradigm. The format is in vivo. The following applies: 0.5 mg/kg i.p. The source says: The rat social interaction paradigm takes advantage of rats' natural behaviour in novel situations. The more ‘anxious’ the animals are, the less likely they are engage in social interaction with the cohort. Anxiolytic drugs typically increase the amount of time rodents spend socially interacting with one another. (Pile, S. E., (1980). The use of social interaction as a method for detecting anxiolytic activity of chlor-diazepoxide-like drugs. In Current Protocols in Neuroscience (pp. 8.3.3-8.3.4), John-Wiley & Sons).
The social-interaction (SI) test arena constituted of a 60×60 cm white Plexiglas floor, enclosed by 35-cm high walls of the same material. The arena was surrounded by black curtain, and a closed circuit camera was positioned above the setup, to feed live video signals to the experimenter seated in a separate room, for behavioral assessment and recording.
Each rat was placed alone in the SI box for 7.5 min daily for 2 days, in order to familiarize the animals with the test environment. Animals were paired according to their body weights (less than 10 g difference) and each pair was randomly assigned to one of the treatment groups. Rats received either betulinic acid 0.5 mg/kg i.p., betulinic acid methyl ester (methyl betulinate) 0.5 mg/kg i.p., or peanut oil only (control). Drugs were injected (i.p.) 60 min prior to testing. Tests were carried out at three intervals, 1 h, 2.5 h and 4 h after injection. Each pair was tested at the 1-h interval, then new pairs from within the same drug group were formed for the 2.5-h interval and then again at the 4-h interval (new pairs were formed for each test interval, to control for the potential confounding effect partner familiarity). […] The behaviors scored included the amount of time the pairs spent interacting together (sniffing, grooming and chasing) as well as the number of times the animals initiated contact.

A further data set deals with Sprague Dawley rats. Put plainly: Locomotor activity after chronic administration. In kind it is in vivo, rat. The following applies: chronic 0.5 mg/kg daily orally, one night 5 p.m. to 7 a.m. (FIG. 11). How it is done: Test animals and drug treatments were as in Example 14. Locomotor activity was recorded for one night (5 p.m. to 7 a.m. the following morning) in the control as well as in the betulinic acid and methyl ester of betulinic acid exposed groups. Locomotor activity was monitored using infrared sensors located on the roof of the animals' cage. Eight independent sensors monitored activity of animals according to the number of quadrants traversed.

Data set [2] in a line: Weight gain over chronic treatment. The format is in vivo, rat. The following applies: rats, chronic 0.5 mg/kg daily orally (FIG. 12).
The nature of a further data set: Solubility. The settings on record: in water and in methanol. In kind it is physicochemical.

With `CC1(C)CC[C@]2(C)CC[C@]3(C)C(=CC[C@@H]4[C@@]5(C)CC[C@H](O)C(C)(C)[C@@H]5CC[C@]43C)[C@@H]2C1` [beta-amyrin], the “anxiolytic activity on the elevated plus maze paradigm” value in data set [1] (5 mg/kg (FIG. 7)) is listed as “neither beta-amyrin (5 mg/kg) nor oleanolic acid (0.5 mg/kg), two compounds structurally related to betulinic acid, displayed any anxiolytic activity”.

`C=C(C)[C@@H]1CC[C@]2(C(=O)OC)CC[C@]3(C)[C@H](CC[C@@H]4[C@@]5(C)CC[C@H](O)C(C)(C)[C@@H]5CC[C@]43C)[C@@H]12` [betulinic acid methyl ester, Methyl betulinate]: the “frequency of initiated contact” value with Sprague-Dawley rats is “not significant”. Also, the “amount of social interaction (interaction time) compared to the control group” value in the data set with Sprague-Dawley rats (data collapsed across 1 h, 2.5 h and 4 h (FIG. 8)) was “significantly increased the amount of social interaction”. Besides, in the data set on Sprague-Dawley rats (p<0.05), the “increase of social interaction compared to betulinic acid” value is reported as “significantly more effective at increasing social interaction than betulinic acid”. Besides, the “adverse effect on locomotor activity or pattern” value in the data set with Sprague Dawley rats is recorded as “neither betulinic acid nor the methyl ester of betulinic acid had an adverse effect on locomotor activity or pattern”. Also, the “effect of chronic drug treatment on weight gain” value in data set [2] is listed as “did not seem to affect weight gain in a significant manner”.

For `CC1(C)CC[C@]2(C(=O)O)CC[C@]3(C)C(=CC[C@@H]4[C@@]5(C)CC[C@H](O)C(C)(C)[C@@H]5CC[C@]43C)[C@@H]2C1` [oleanolic acid], the “anxiolytic activity on the elevated plus maze paradigm” value in data set [1] (0.5 mg/kg) is listed as “neither beta-amyrin (5 mg/kg) nor oleanolic acid (0.5 mg/kg), two compounds structurally related to betulinic acid, displayed any anxiolytic activity”.

In the case of `C=C(C)C1CCC2(C(=O)[O-])CCC3(C)C(CCC4C5(C)CCC(O)C(C)(C)C5CCC43C)C12.[Na+]` (centres unmarked) [sodium salt of betulinic acid], the “solubility relative to pure betulinic acid” value in “Solubility” was “greater in water and in methanol than pure betulinic acid”.
